Assay results taken from paper PMC9650428, “Mutagenesis and functional analysis of SotB: A multidrug transporter of the major facilitator superfamily from Escherichia coli” (Frontiers in Microbiology, 2022).
Numbering of substitutions follows the chain as printed.

How the values were obtained:
[1] = target: T1, SotB (Escherichia coli, UniProt P31122); test: SPR affinity assay, wild-type SotB; type: binding; settings: SPR, wild-type SotB immobilised, one-to-one model; read-out: KD (equilibrium dissociation constant), binding affinity with SotB
T1 construct: The full-length sotB and lapC genes from the E. coli MG1655 genome were subcloned into the cloning vector pET28a; 8xHis (C); made in house; host or cells: E. coli C43(DE3)
Description: (§1) The instrument used in surface plasmon resonance (SPR) affinity assays was OpenSPR (Nicoya, Canada) and the chip used was COOH sensor chip (Nicoya, Canada). SotB and its variants were as ligands. IPTG, L-arabinose, D-xylose, D-glucose, D-fructose, and D-mannose were as small molecules. Using HSB-EP buffer (10 mM HEPES, 150 mM NaCl, 3 mM EDTA, 0.005% Tween-20, pH7.4) as test buffer and setting flow rate 150 μl/min after installed COOH chip according to OpenSPRTM instrument standard operating procedure. After the signal baseline was reached, loading 200 μl 80% isopropyl alcohol and ran for 10 s to drain bubbles. After reaching baseline, the sample ring was rinsed with HSB-EP buffer and emptied with air. After the signal reached the baseline, loading 200 μl EDC (400 mM, Sigma)/NHS (100 mM, Sigma; 1:1) solution with a flow rate 20 μl/min for 4 min. Then, loading 200 μl ligand (SotB/SotB variants) diluted by the activation buffer (sodium acetate, 10 mM, pH3.5) and ran for 4 min (20 μl/min). Then the sample ring was rinsed with HSB-EP buffer and emptied with air. Loading 200 μl 1 M ethanolamine (Sigma) blocking solution (20 μl/min, 4 min), rinsed the sample ring with HSB-EP buffer, and emptied the sample ring with air. Observing baseline for 5 min to ensure stability. The small molecules were diluted with PBS buffer (2 mM of KH2PO4, 10 mM of Na2HPO4, 2.7 mM of KCl, and 137 mM of NaCl at pH 7.4), and the concentration was shown in the experimental results. The flow rate for small molecules was performed at 20 μl/min. The binding time of small molecule and ligand was 240 s, and the dissociation was 240 s. The analysis software used for the experimental results was TraceDrawer, and the analysis method was one-to-one analysis model.

[2] = target: T2, SotB E29A (Escherichia coli, UniProt P31122, E29A); test: SPR affinity assay, SotB variant E29A; settings: read-out: KD, binding affinity with E29A
T2 construct: The full-length sotB and lapC genes from the E. coli MG1655 genome were subcloned into the cloning vector pET28a; 8xHis (C); made in house; host or cells: E. coli C43(DE3)
T2 sequence (P31122 1-396 E29A): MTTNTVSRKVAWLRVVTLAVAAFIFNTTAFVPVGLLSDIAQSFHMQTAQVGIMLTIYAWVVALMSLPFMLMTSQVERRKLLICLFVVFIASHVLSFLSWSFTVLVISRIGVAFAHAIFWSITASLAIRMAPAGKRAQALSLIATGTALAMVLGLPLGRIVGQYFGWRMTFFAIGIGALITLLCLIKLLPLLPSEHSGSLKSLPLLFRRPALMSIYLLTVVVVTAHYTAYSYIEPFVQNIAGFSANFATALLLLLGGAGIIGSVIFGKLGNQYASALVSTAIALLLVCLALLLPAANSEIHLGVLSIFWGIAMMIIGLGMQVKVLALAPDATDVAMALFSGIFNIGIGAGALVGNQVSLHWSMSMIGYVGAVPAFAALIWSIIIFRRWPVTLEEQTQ
Description: as §1, with “The small molecules were diluted with PBS buffer (2 mM of KH2PO4, 10 mM of Na2HPO4, 2.7 mM of KCl, and 137 mM of NaCl at pH 7.4), and the concentration was shown in the experimental results. The flow rate for small molecules was performed at 20 μl/min. The binding time of small molecule and ligand was 240 s, and the dissociation was 240 s. The analysis software used for the experimental results was TraceDrawer, and the analysis method was one-to-one analysis model.” left out

[3] = target: T3, SotB H115A (Escherichia coli, UniProt P31122, H115A); test: SPR affinity assay, SotB variant H115A; type: binding
T3 construct: The full-length sotB and lapC genes from the E. coli MG1655 genome were subcloned into the cloning vector pET28a; 8xHis (C); made in house; host or cells: E. coli C43(DE3)
T3 sequence (P31122 1-396 H115A): T2 sequence (P31122 1-396 E29A) with A29E, H115A
Description: as §1

[4] = target: T4, SotB W119A (Escherichia coli, UniProt P31122, W119A); test: SPR affinity assay, SotB variant W119A; settings: read-out: KD, binding affinity with W119A
T4 construct: The full-length sotB and lapC genes from the E. coli MG1655 genome were subcloned into the cloning vector pET28a; 8xHis (C); made in house; host or cells: E. coli C43(DE3)
T4 sequence (P31122 1-396 W119A): T2 sequence (P31122 1-396 E29A) with A29E, W119A
Description: as §1, with “The small molecules were diluted with PBS buffer (2 mM of KH2PO4, 10 mM of Na2HPO4, 2.7 mM of KCl, and 137 mM of NaCl at pH 7.4), and the concentration was shown in the experimental results. The flow rate for small molecules was performed at 20 μl/min. The binding time of small molecule and ligand was 240 s, and the dissociation was 240 s. The analysis software used for the experimental results was TraceDrawer, and the analysis method was one-to-one analysis model.” left out

[5] = target: T5, SotB S339A (Escherichia coli, UniProt P31122, S339A); test: SPR affinity assay, SotB variant S339A; settings: read-out: KD, binding affinity with S339A
T5 construct: The full-length sotB and lapC genes from the E. coli MG1655 genome were subcloned into the cloning vector pET28a; 8xHis (C); made in house; host or cells: E. coli C43(DE3)
T5 sequence (P31122 1-396 S339A): T2 sequence (P31122 1-396 E29A) with A29E, S339A
Description: as §1, with “The small molecules were diluted with PBS buffer (2 mM of KH2PO4, 10 mM of Na2HPO4, 2.7 mM of KCl, and 137 mM of NaCl at pH 7.4), and the concentration was shown in the experimental results. The flow rate for small molecules was performed at 20 μl/min. The binding time of small molecule and ligand was 240 s, and the dissociation was 240 s. The analysis software used for the experimental results was TraceDrawer, and the analysis method was one-to-one analysis model.” left out

T1 sequence (P31122 whole entry): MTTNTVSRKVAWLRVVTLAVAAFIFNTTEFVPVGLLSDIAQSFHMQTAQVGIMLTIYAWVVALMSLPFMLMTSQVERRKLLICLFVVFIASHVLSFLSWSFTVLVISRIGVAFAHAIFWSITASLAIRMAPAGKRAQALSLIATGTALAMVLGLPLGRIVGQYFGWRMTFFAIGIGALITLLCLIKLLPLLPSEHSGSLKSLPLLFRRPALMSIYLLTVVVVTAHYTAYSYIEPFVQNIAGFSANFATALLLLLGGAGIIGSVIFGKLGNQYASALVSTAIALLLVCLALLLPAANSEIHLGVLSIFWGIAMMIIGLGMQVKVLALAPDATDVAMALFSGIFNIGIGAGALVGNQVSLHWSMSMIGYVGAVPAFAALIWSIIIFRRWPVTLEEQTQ

`OC1OC[C@H](O)[C@H](O)[C@H]1O` (mixture of isomers) [L-arabinose] was tested, and the Kd [1] was 4.1 mM, the Kd [2] was 5.1 mM and the “Binding affinity of H115A, fold lower than the wild-type protein” value ([3]; H115A vs wild-type SotB) was 3.2 fold. It also gave a Kd ([3]; SotB variant H115A, read-out: KD, binding affinity with H115A) of 13.3 mM, a Kd [4] of 4.9 mM and a Kd [5] of 3.5 mM.
